{"source": "ChEMBL document CHEMBL4507273", "about": "(2021)", "key": {"[1]": {"target": "T1, Alpha-1A adrenergic receptor (Homo sapiens, UniProt P35348)", "T1 sequence (P35348 whole entry)": "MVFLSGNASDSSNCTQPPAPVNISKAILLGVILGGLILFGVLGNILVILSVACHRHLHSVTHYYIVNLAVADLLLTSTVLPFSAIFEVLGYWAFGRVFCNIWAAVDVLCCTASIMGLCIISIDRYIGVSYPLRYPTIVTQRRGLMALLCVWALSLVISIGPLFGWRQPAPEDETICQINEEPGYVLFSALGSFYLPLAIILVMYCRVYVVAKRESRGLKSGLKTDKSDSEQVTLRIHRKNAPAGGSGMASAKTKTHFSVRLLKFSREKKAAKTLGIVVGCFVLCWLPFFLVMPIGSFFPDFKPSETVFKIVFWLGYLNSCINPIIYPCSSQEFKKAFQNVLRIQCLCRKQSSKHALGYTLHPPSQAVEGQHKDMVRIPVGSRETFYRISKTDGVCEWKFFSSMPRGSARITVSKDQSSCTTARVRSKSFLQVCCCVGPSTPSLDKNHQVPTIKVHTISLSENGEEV", "experiment": "GPCRScan assay: inhibition of Alpha1A", "parameters": "radioligand conc. used [nm] 0.2 - 1.0, parental cells stable HEK"}, "[2]": {"target": "T2, Alpha-1D adrenergic receptor (Homo sapiens, UniProt P25100)", "T2 sequence (P25100 whole entry)": "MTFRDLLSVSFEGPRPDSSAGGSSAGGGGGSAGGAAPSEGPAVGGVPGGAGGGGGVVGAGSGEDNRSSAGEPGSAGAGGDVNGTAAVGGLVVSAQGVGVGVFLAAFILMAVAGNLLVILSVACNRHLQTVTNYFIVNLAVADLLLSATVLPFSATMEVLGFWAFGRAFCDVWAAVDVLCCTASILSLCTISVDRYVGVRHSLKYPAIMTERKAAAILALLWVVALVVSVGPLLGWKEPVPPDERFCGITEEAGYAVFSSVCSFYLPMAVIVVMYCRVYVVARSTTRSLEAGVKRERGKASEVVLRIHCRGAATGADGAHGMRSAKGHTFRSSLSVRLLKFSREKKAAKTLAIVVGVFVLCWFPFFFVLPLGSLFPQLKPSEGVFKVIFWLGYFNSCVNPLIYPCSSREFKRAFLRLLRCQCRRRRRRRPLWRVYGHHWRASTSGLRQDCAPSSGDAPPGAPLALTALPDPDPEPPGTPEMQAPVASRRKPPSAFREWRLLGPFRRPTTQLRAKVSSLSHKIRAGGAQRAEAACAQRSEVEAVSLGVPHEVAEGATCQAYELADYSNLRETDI", "experiment": "GPCRScan assay: inhibition of Alpha1D", "parameters": "radioligand conc. used [nm] 0.3 – 1.0, parental cells stable"}, "[3]": {"test_system": "Tyrosine-protein kinase ABL1 (Homo sapiens), P00519 [E255K]", "conditions": "Compound concentration 1000.0 nM"}, "[4]": {"target": "RAC-alpha serine/threonine-protein kinase (Homo sapiens) (UniProt P31749)", "conditions": "Compound concentration 1000.0 nM"}, "[5]": {"target": "5'-AMP-activated protein kinase catalytic subunit alpha-1 (Homo sapiens) (UniProt Q13131)", "conditions": "Compound concentration 1000.0 nM"}, "[6]": {"target": "Calcium/calmodulin-dependent protein kinase type II subunit beta (Homo sapiens) (UniProt Q13554)", "conditions": "Compound concentration 1000.0 nM"}, "[7]": {"target": "Cyclin-dependent kinase-like 5 (Homo sapiens) (UniProt O76039)", "sequence (O76039 whole entry)": "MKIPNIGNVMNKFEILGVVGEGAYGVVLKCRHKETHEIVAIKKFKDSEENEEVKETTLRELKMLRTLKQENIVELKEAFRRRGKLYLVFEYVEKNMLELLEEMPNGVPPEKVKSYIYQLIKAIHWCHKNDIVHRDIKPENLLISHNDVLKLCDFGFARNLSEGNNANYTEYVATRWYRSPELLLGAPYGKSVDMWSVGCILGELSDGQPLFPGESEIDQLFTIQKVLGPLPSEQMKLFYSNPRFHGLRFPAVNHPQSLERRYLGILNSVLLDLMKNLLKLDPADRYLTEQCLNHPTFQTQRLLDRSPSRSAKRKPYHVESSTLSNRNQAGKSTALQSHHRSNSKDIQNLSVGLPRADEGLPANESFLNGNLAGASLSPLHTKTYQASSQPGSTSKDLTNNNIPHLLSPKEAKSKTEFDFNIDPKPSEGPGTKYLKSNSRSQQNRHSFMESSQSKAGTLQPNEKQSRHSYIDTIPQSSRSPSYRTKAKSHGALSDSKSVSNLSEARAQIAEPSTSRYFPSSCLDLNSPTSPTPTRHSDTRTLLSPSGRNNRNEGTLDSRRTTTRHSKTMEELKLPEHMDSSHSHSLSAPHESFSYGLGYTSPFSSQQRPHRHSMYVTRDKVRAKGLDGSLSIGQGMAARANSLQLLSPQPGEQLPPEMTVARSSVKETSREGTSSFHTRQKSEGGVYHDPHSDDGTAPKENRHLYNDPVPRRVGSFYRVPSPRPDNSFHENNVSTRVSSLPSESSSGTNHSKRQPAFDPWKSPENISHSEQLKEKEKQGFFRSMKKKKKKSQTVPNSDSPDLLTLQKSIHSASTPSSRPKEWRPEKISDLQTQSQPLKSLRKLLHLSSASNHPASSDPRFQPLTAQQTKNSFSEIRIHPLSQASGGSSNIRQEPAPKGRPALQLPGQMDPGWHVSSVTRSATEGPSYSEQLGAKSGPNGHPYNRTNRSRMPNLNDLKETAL", "conditions": "Compound concentration 1000.0 nM"}, "[8]": {"target": "Serine/threonine-protein kinase DCLK2 (Homo sapiens) (UniProt Q8N568)", "conditions": "Compound concentration 1000.0 nM"}, "[9]": {"target": "Epithelial discoidin domain-containing receptor 1 (Homo sapiens) (UniProt Q08345)", "sequence (Q08345 whole entry, the tested form may be a part)": "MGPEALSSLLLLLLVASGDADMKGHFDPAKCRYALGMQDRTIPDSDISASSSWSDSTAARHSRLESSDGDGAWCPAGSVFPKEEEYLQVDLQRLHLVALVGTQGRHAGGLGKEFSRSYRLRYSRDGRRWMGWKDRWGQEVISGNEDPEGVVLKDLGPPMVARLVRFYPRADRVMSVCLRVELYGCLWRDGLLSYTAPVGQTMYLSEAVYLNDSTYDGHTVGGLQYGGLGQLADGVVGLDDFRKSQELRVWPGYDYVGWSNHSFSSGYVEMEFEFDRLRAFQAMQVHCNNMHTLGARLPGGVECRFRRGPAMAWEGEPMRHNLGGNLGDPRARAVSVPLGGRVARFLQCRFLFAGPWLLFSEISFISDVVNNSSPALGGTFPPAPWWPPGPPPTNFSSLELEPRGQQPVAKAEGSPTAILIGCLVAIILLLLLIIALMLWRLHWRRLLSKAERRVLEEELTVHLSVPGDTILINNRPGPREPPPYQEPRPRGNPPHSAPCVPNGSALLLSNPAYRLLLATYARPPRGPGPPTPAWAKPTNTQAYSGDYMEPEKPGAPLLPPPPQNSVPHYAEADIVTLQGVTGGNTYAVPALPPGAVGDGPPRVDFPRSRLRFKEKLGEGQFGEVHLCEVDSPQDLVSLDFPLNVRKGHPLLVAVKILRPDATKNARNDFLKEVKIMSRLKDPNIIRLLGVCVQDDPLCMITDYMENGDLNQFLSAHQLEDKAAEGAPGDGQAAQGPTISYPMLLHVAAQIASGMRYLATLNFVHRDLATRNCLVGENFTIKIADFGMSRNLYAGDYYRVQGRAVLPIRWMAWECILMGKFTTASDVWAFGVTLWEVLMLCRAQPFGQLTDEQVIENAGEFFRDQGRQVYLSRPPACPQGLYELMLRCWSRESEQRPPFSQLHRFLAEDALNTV", "conditions": "Compound concentration 1000.0 nM"}, "[10]": {"test_system": "Epidermal growth factor receptor (Homo sapiens), P00533 [T790M]", "conditions": "Compound concentration 1000.0 nM"}, "[11]": {"target": "Insulin-like growth factor 1 receptor (Homo sapiens) (UniProt P08069)", "conditions": "Compound concentration 1000.0 nM"}, "[12]": {"target": "Inhibitor of nuclear factor kappa-B kinase subunit alpha (Homo sapiens) (UniProt O15111)", "conditions": "Compound concentration 1000.0 nM"}, "[13]": {"target": "Tyrosine-protein kinase JAK1 (Homo sapiens) (UniProt P23458)", "conditions": "Compound concentration 1000.0 nM"}, "[14]": {"test_system": "Leucine-rich repeat serine/threonine-protein kinase 2 (Homo sapiens), Q5S007 [G2019S]", "conditions": "Compound concentration 1000.0 nM"}, "[15]": {"target": "Tyrosine-protein kinase Mer (Homo sapiens) (UniProt Q12866)", "sequence (Q12866 whole entry)": "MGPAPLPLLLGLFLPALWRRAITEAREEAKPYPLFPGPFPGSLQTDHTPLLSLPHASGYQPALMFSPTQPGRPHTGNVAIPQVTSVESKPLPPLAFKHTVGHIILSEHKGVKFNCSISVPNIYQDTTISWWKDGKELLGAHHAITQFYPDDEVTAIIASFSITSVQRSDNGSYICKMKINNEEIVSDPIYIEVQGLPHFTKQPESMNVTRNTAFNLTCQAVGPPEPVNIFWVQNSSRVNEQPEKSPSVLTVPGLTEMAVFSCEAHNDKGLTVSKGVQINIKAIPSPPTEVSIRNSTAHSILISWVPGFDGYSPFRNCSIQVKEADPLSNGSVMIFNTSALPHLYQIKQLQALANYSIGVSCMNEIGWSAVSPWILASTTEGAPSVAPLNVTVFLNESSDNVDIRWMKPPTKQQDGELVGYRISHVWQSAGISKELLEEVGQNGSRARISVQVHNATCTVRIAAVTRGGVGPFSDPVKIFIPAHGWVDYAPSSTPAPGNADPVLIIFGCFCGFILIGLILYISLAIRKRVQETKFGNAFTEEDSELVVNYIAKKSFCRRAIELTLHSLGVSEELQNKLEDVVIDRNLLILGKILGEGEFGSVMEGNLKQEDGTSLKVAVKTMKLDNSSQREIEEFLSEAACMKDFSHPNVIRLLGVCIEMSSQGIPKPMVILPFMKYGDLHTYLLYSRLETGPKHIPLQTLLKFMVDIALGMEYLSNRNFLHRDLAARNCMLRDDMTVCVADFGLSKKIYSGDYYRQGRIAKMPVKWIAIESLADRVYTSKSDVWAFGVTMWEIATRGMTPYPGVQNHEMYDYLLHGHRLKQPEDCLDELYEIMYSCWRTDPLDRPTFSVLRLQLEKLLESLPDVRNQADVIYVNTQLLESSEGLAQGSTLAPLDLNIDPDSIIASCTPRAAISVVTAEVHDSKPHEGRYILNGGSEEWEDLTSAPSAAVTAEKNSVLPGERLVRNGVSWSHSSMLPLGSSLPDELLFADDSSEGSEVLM", "conditions": "Compound concentration 1000.0 nM"}, "[16]": {"target": "Misshapen-like kinase 1 (Homo sapiens) (UniProt Q8N4C8)", "conditions": "Compound concentration 1000.0 nM"}, "[17]": {"target": "Serine/threonine-protein kinase OSR1 (Homo sapiens) (UniProt O95747)", "conditions": "Compound concentration 1000.0 nM"}, "[18]": {"target": "Phosphorylase b kinase gamma catalytic chain, skeletal muscle/heart isoform (Homo sapiens) (UniProt Q16816)", "conditions": "Compound concentration 1000.0 nM"}, "[19]": {"test_system": "Phosphatidylinositol 4,5-bisphosphate 3-kinase catalytic subunit alpha isoform (Homo sapiens), P42336 [Q546K]", "conditions": "Compound concentration 1000.0 nM"}, "[20]": {"target": "Phosphatidylinositol 4,5-bisphosphate 3-kinase catalytic subunit delta isoform (Homo sapiens) (UniProt O00329)", "conditions": "Compound concentration 1000.0 nM"}, "[21]": {"target": "Rho-associated protein kinase 1 (Homo sapiens) (UniProt Q13464)", "conditions": "Compound concentration 1000.0 nM"}, "[22]": {"target": "Rho-associated protein kinase 2 (Homo sapiens) (UniProt O75116)", "sequence (O75116 whole entry, looked up)": "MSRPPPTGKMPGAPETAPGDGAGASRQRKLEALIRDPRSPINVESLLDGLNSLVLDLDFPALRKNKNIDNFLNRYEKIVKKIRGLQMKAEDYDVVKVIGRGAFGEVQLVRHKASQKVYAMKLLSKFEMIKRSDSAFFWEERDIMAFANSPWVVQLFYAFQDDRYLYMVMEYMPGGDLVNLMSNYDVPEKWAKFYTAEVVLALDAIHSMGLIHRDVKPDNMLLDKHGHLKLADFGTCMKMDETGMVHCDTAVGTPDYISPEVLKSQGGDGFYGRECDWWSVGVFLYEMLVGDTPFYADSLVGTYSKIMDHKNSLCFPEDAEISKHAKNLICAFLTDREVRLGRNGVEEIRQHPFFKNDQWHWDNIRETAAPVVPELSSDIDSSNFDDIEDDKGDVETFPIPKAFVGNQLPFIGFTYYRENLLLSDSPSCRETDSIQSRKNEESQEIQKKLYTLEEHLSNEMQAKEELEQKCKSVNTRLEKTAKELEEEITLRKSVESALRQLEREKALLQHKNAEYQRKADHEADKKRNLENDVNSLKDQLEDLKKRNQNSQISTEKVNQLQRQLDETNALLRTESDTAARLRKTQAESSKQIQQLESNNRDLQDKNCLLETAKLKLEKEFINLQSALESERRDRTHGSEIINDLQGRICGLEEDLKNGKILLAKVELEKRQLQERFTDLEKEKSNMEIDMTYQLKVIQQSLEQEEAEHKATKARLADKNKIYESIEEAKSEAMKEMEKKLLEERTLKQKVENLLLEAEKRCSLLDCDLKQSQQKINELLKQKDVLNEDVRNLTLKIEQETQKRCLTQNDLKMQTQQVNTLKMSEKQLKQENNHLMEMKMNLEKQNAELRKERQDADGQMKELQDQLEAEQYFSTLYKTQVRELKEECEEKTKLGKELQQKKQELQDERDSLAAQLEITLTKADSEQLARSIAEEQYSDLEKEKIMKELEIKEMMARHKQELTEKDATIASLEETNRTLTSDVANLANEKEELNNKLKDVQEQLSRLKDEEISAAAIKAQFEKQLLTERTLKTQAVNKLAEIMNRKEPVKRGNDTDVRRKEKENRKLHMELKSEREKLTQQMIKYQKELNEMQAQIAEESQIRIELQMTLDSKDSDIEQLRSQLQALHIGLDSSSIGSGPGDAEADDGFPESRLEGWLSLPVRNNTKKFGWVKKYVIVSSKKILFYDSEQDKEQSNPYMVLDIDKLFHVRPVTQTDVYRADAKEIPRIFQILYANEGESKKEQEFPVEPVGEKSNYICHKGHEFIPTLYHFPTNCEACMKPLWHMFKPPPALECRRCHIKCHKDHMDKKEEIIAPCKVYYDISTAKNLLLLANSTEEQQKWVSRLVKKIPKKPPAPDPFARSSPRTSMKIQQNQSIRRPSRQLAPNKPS", "conditions": "Compound concentration 1000.0 nM"}, "[23]": {"target": "Proto-oncogene tyrosine-protein kinase ROS (Homo sapiens) (UniProt P08922)", "conditions": "Compound concentration 1000.0 nM"}, "[24]": {"target": "SNF-related serine/threonine-protein kinase (Homo sapiens) (UniProt Q9NRH2)", "conditions": "Compound concentration 1000.0 nM"}, "[25]": {"target": "Serine/threonine-protein kinase 35 (Homo sapiens) (UniProt Q8TDR2)", "sequence (Q8TDR2 whole entry)": "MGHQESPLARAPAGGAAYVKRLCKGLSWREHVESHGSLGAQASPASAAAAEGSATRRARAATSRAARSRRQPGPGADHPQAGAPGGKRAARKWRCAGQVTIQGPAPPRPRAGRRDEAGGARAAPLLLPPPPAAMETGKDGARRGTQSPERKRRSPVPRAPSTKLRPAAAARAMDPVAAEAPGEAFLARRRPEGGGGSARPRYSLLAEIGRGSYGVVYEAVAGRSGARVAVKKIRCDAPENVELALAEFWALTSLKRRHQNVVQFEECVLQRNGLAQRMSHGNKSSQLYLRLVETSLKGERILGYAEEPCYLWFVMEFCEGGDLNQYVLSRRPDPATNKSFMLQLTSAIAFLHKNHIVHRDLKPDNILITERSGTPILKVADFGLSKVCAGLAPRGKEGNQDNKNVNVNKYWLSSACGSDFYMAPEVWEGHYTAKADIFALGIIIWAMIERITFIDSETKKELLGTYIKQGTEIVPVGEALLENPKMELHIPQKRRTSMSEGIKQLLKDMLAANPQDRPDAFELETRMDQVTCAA", "conditions": "Compound concentration 1000.0 nM"}, "[26]": {"target": "Serine/threonine-protein kinase tousled-like 2 (Homo sapiens) (UniProt Q86UE8)", "conditions": "Compound concentration 1000.0 nM"}, "[27]": {"target": "Serine/threonine-protein kinase TNNI3K (Homo sapiens) (UniProt Q59H18)", "conditions": "Compound concentration 1000.0 nM"}, "[28]": {"target": "Non-receptor tyrosine-protein kinase TYK2 (Homo sapiens) (UniProt P29597)", "conditions": "Compound concentration 1000.0 nM"}, "D(2) dopamine receptor": {"target": "D(2) dopamine receptor (Homo sapiens, UniProt P14416)", "conditions": "Compound concentration 10.0 uM"}, "[29]": {"target": "Sigma intracellular receptor 2 (Homo sapiens, UniProt Q5BJF2)", "sequence (Q5BJF2 whole entry)": "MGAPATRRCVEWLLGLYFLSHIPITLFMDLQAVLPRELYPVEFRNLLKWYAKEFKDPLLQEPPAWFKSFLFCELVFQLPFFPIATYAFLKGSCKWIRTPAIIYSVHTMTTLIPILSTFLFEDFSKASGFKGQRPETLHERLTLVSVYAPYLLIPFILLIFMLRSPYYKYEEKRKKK", "conditions": "Compound concentration 10.0 uM"}}, "data": [{"smiles": "CNCc1ccccc1-c1csc([C@H](C)Nc2nc(C)nc3cc(OC)c(OC)cc23)c1", "note": "[BAY-294]", "values": [{"measurement": "Ki", "setting": "[1]; read-out: Ki", "result": 454, "unit": "nM"}, {"measurement": "Ki", "setting": "[1]; read-out: pKi (converted)", "result": 437, "unit": "nM"}, {"measurement": "Ki", "setting": "[2]; read-out: Ki", "result": 397, "unit": "nM"}, {"measurement": "Ki", "setting": "[2]; read-out: pKi (converted)", "result": 389, "unit": "nM"}, {"measurement": "residual activity", "setting": "[3]", "result": 81, "unit": "%"}, {"measurement": "residual activity", "setting": "[4]", "result": 100, "unit": "%"}, {"measurement": "residual activity", "setting": "[5]", "result": 93, "unit": "%"}, {"measurement": "residual activity", "setting": "[6]", "result": 100, "unit": "%"}, {"measurement": "residual activity", "setting": "[7]", "result": 87, "unit": "%"}, {"measurement": "residual activity", "setting": "[8]", "result": 100, "unit": "%"}, {"measurement": "residual activity", "setting": "[9]", "result": 100, "unit": "%"}, {"measurement": "residual activity", "setting": "[10]", "result": 76, "unit": "%"}, {"measurement": "residual activity", "setting": "[11]", "result": 100, "unit": "%"}, {"measurement": "residual activity", "setting": "[12]", "result": 90, "unit": "%"}, {"measurement": "residual activity", "setting": "[13]", "result": 89, "unit": "%"}, {"measurement": "residual activity", "setting": "[14]", "result": 84, "unit": "%"}, {"measurement": "residual activity", "setting": "[15]", "result": 72, "unit": "%"}, {"measurement": "residual activity", "setting": "[16]", "result": 88, "unit": "%"}, {"measurement": "residual activity", "setting": "[17]", "result": 78, "unit": "%"}, {"measurement": "residual activity", "setting": "[18]", "result": 87, "unit": "%"}, {"measurement": "residual activity", "setting": "[19]", "result": 84, "unit": "%"}, {"measurement": "residual activity", "setting": "[20]", "result": 100, "unit": "%"}, {"measurement": "residual activity", "setting": "[21]", "result": 93, "unit": "%"}, {"measurement": "residual activity", "setting": "[22]", "result": 100, "unit": "%"}, {"measurement": "residual activity", "setting": "[23]", "result": 100, "unit": "%"}, {"measurement": "residual activity", "setting": "[24]", "result": 93, "unit": "%"}, {"measurement": "residual activity", "setting": "[25]", "result": 100, "unit": "%"}, {"measurement": "residual activity", "setting": "[26]", "result": 100, "unit": "%"}, {"measurement": "residual activity", "setting": "[27]", "result": 100, "unit": "%"}, {"measurement": "residual activity", "setting": "[28]", "result": 76, "unit": "%"}, {"measurement": "inhibition", "setting": "D(2) dopamine receptor", "result": 50.6, "unit": "%"}, {"measurement": "inhibition", "setting": "[29]", "result": 83.2, "unit": "%"}]}, {"smiles": "CNCc1ccccc1-c1csc([C@@H](C)Nc2nc(C)nc3cc(OC)c(OC)cc23)c1", "note": "[BAY-293]", "values": [{"measurement": "Ki", "setting": "[1]; read-out: Ki", "result": 428, "unit": "nM"}, {"measurement": "Ki", "setting": "[2]; read-out: Ki", "result": 338, "unit": "nM"}, {"measurement": "residual activity", "setting": "[3]", "result": 75, "unit": "%"}, {"measurement": "residual activity", "setting": "[4]", "result": 100, "unit": "%"}, {"measurement": "residual activity", "setting": "[5]", "result": 100, "unit": "%"}, {"measurement": "residual activity", "setting": "[6]", "result": 92, "unit": "%"}, {"measurement": "residual activity", "setting": "[7]", "result": 94, "unit": "%"}, {"measurement": "residual activity", "setting": "[8]", "result": 99, "unit": "%"}, {"measurement": "residual activity", "setting": "[9]", "result": 100, "unit": "%"}, {"measurement": "residual activity", "setting": "[10]", "result": 68, "unit": "%"}, {"measurement": "residual activity", "setting": "[11]", "result": 100, "unit": "%"}, {"measurement": "residual activity", "setting": "[12]", "result": 100, "unit": "%"}, {"measurement": "residual activity", "setting": "[13]", "result": 100, "unit": "%"}, {"measurement": "residual activity", "setting": "[14]", "result": 72, "unit": "%"}, {"measurement": "residual activity", "setting": "[15]", "result": 61, "unit": "%"}, {"measurement": "residual activity", "setting": "[16]", "result": 57, "unit": "%"}, {"measurement": "residual activity", "setting": "[17]", "result": 67, "unit": "%"}, {"measurement": "residual activity", "setting": "[18]", "result": 83, "unit": "%"}, {"measurement": "residual activity", "setting": "[19]", "result": 89, "unit": "%"}, {"measurement": "residual activity", "setting": "[20]", "result": 75, "unit": "%"}, {"measurement": "residual activity", "setting": "[21]", "result": 91, "unit": "%"}, {"measurement": "residual activity", "setting": "[22]", "result": 93, "unit": "%"}, {"measurement": "residual activity", "setting": "[23]", "result": 84, "unit": "%"}, {"measurement": "residual activity", "setting": "[24]", "result": 78, "unit": "%"}, {"measurement": "residual activity", "setting": "[25]", "result": 91, "unit": "%"}, {"measurement": "residual activity", "setting": "[26]", "result": 90, "unit": "%"}, {"measurement": "residual activity", "setting": "[27]", "result": 100, "unit": "%"}, {"measurement": "residual activity", "setting": "[28]", "result": 71, "unit": "%"}, {"measurement": "inhibition", "setting": "D(2) dopamine receptor", "result": 32.3, "unit": "%"}, {"measurement": "inhibition", "setting": "[29]", "result": 94.8, "unit": "%"}]}]}
